The record followed here is BindingDB's records for PubMed 36970145 (n/a, 2023).

Each structure is given as a SMILES string.

The nature of this experiment: Inhibition of human 20S immuno proteosome beta5i subunit using Suc-LLVY-AMC as substrate measured after 10 mins by fluorescence based analysis.
Usually IC50 stands for the concentration needed to halve the response being measured. A lower IC50 goes with greater potency. On to `O=C(Nc1ccc(Cl)cc1)Nc1ccc2n(c1=O)C[C@@H]1C[C@H]2CN(C(=O)c2ccc3ccccc3c2)C1`, for which the IC50 stood at 8.44 µM.

For the compound `O=C(Nc1ccccc1)Nc1ccc2n(c1=O)C[C@@H]1C[C@H]2CN(C(=O)c2ccc3ccccc3c2)C1`, the half-inhibitory concentration (IC50) was determined as 31.6 µM. As to `COc1ccccc1NC(=O)Nc1ccc2n(c1=O)C[C@@H]1C[C@H]2CN(C(=O)c2ccc3ccccc3c2)C1`, the IC50 amounted to 5.6 µM. For `N#Cc1cccc(NC(=O)Nc2ccc3n(c2=O)C[C@@H]2C[C@H]3CN(C(=O)c3ccc4ccccc4c3)C2)c1` the value was 22.1 µM.
